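GI50 = concentration required for 50% inhibition of growth. Definition used: TGI = concentration required for complete inhibition of growth.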
Tests used:
Assay in all cases: NCI-60 cell line screen, 384-well format
[1] = test system: CAKI-1 renal
[2] = test system: MALME-3M melanoma
[3] = test system: UACC-257 melanoma
[4] = test system: K-562 leukemia
[5] = test system: T-47D breast
[6] = test system: HL-60(TB) leukemia
[7] = test system: EKVX NSCLC
[8] = test system: SK-OV-3 ovarian
[9] = test system: HOP-62 NSCLC
[10] = test system: OVCAR-8 ovarian
[11] = test system: DU-145 prostate
[12] = test system: COLO 205 colon
[13] = test system: HT29 colon
[14] = test system: M14 melanoma
[15] = test system: 786-0 renal
[16] = test system: HS 578T breast
[17] = test system: MDA-MB-435 melanoma
[18] = test system: LOX IMVI melanoma
[19] = test system: NCI-H460 NSCLC
[20] = test system: A549 NSCLC
[21] = test system: UO-31 renal
[22] = test system: IGROV1 ovarian
[23] = test system: SNB-75 CNS
[24] = test system: OVCAR-5 ovarian
[25] = test system: OVCAR-4 ovarian
[26] = test system: MDA-MB-468 breast
[27] = test system: NCI-H322M lung
[28] = test system: SF-295 CNS
[29] = test system: U251 glioblastoma
[30] = test system: RXF 393 renal
[31] = test system: SW-620 colon
[32] = test system: CCRF-CEM leukemia
[33] = test system: RPMI-8226 leukemia
[34] = test system: SK-MEL-5 melanoma
[35] = test system: UACC-62 melanoma
[36] = test system: PC-3 prostate
[37] = test system: SF-268 CNS
[38] = test system: NCI-H226 lung
[39] = test system: SNB-19 CNS
[40] = test system: A498 renal
[41] = test system: HCT-15 colon
[42] = test system: MOLT-4 leukemia
[43] = test system: MDA-MB-231 breast
[44] = test system: HCC-2998 colon
[45] = test system: NCI-H522 lung
[46] = test system: OVCAR-3 ovarian
[47] = test system: NCI-H23 lung
[48] = test system: TK-10 renal
[49] = test system: SF-539 CNS
[50] = test system: HCT-116 colon
[51] = test system: MCF7 breast
[52] = test system: NCI/ADR-RES ovarian
[53] = test system: ACHN renal
[54] = test system: BT-549 breast
[55] = test system: KM12 colon
[56] = test system: SK-MEL-28 melanoma
[57] = test system: HOP-92 NSCLC
[58] = test system: SN12C renal

COc1ccc(Oc2cc(NCCC(F)(F)F)c3ncc(-c4ccc(C(=O)NC5CC5)c(C)c4)n3n2)c(F)c1F
GI50 [1]: 0.208 µM | TGI [1]: 2.48 µM | GI50 [2]: 0.182 µM | TGI [2]: 26.7 µM | GI50 [3]: 3.09 µM | TGI [3]: 25.4 µM | GI50 [4]: 0.264 µM | TGI [4]: > 100 µM | GI50 [5]: 2.11 µM | TGI [5]: 34.8 µM | GI50 [6]: < 0.01 µM | TGI [6]: < 0.01 µM | GI50 [7]: 5.88 µM | TGI [7]: 84.2 µM | GI50 [8]: 0.459 µM | TGI [8]: 27 µM | GI50 [9]: < 0.01 µM | TGI [9]: 4.93 µM | GI50 [10]: < 0.01 µM | TGI [10]: 3.68 µM | GI50 [11]: < 0.01 µM | TGI [11]: > 100 µM | GI50 [12]: < 0.01 µM | TGI [12]: > 100 µM | GI50 [13]: < 0.01 µM | TGI [13]: > 100 µM | GI50 [14]: 0.0101 µM | TGI [14]: 15.2 µM | GI50 [15]: < 0.01 µM | TGI [15]: 14.3 µM | GI50 [16]: 0.0204 µM | TGI [16]: 2.32 µM | GI50 [17]: 0.286 µM | TGI [17]: 70 µM | GI50 [18]: < 0.01 µM | TGI [18]: 11.5 µM | GI50 [19]: < 0.01 µM | TGI [19]: 1.17 µM | GI50 [20]: < 0.01 µM | TGI [20]: 18.4 µM | GI50 [21]: < 0.01 µM | TGI [21]: 20 µM | GI50 [22]: 0.337 µM | TGI [22]: 46.4 µM | GI50 [23]: 0.0544 µM | TGI [23]: 13.3 µM | GI50 [24]: 0.977 µM | TGI [24]: > 100 µM | GI50 [25]: 13.9 µM | TGI [25]: 67 µM | GI50 [26]: < 0.01 µM | TGI [26]: 3.47 µM | GI50 [27]: 2.14 µM | TGI [27]: > 100 µM | GI50 [28]: 1.41 µM | TGI [28]: 31.2 µM | GI50 [29]: < 0.01 µM | TGI [29]: 17.4 µM | GI50 [30]: < 0.01 µM | TGI [30]: 0.932 µM | GI50 [31]: < 0.01 µM | TGI [31]: 18.5 µM | GI50 [32]: < 0.01 µM | TGI [32]: < 0.01 µM | GI50 [33]: < 0.01 µM | TGI [33]: 24.5 µM | GI50 [34]: < 0.01 µM | TGI [34]: 18.5 µM | GI50 [35]: 0.0441 µM | TGI [35]: 8.83 µM | GI50 [36]: 1.43 µM | TGI [36]: 28.8 µM | GI50 [37]: < 0.01 µM | TGI [37]: < 0.01 µM | GI50 [38]: 4.83 µM | TGI [38]: 54.4 µM | GI50 [39]: 2.8 µM | TGI [39]: 39.8 µM | GI50 [40]: 0.189 µM | TGI [40]: 7.86 µM | GI50 [41]: < 0.01 µM | TGI [41]: 12.2 µM | GI50 [42]: < 0.01 µM | TGI [42]: < 0.01 µM | GI50 [43]: 0.365 µM | TGI [43]: 30.1 µM | GI50 [44]: 13.1 µM | TGI [44]: > 100 µM | GI50 [45]: 0.682 µM | TGI [45]: 14.3 µM | GI50 [46]: 0.365 µM | TGI [46]: 17.5 µM | GI50 [47]: < 0.01 µM | TGI [47]: 29.6 µM | GI50 [48]: 5.83 µM | TGI [48]: 62.2 µM | GI50 [49]: < 0.01 µM | TGI [49]: 2.11 µM | GI50 [50]: < 0.01 µM | TGI [50]: > 100 µM | GI50 [51]: 1.75 µM | TGI [51]: 85 µM | GI50 [52]: < 0.01 µM | TGI [52]: 0.568 µM | GI50 [53]: 0.169 µM | TGI [53]: 26.9 µM | GI50 [54]: 0.256 µM | TGI [54]: 17 µM | GI50 [55]: 0.271 µM | TGI [55]: > 100 µM | GI50 [56]: 9.92 µM | TGI [56]: 40.7 µM | GI50 [57]: 1.16 µM | TGI [57]: 14.5 µM | GI50 [58]: 18.5 µM | TGI [58]: > 100 µM

Source: PubChem BioAssay (NCI)
